Measurements published in ChEMBL document CHEMBL1201862, “PubChem BioAssay data set” (2004).
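Grown in 96-well plates, cells were treated for 48 hours with each compound at five concentrations. Insufficient inhibition: endpoint recorded as highest concentration tested. GI50 is the concentration that inhibits growth by half.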 The source made the active and inactive calls. Rule as the data show it: active = GI50 up to about 1.1 µM and inactive = higher.

How the values were obtained:
Assay in all cases: inhibition of tumour cell growth, NCI panel, 48 h
786-0 = test system: 786-0
A498 = test system: A498
A549 = test system: A549
ACHN = test system: ACHN
BT-549 = test system: BT-549
CAKI-1 = test system: CAKI-1
COLO 205 = test system: COLO 205
DU-145 = test system: DU-145
EKVX = test system: EKVX
HCC 2998 = test system: HCC 2998
HCT-116 = test system: HCT-116
HCT-15 = test system: HCT-15
HL-60 = test system: HL-60
HOP-62 = test system: HOP-62
HOP-92 = test system: HOP-92
HT-29 = test system: HT-29
Hs-578T = test system: Hs-578T
IGROV-1 = test system: IGROV-1
K562 = test system: K562
LOX IMVI = test system: LOX IMVI
M14 = test system: M14
MCF7 = test system: MCF7
MDA-MB-231 = test system: MDA-MB-231
MDA-MB-435 = test system: MDA-MB-435
MDA-N = test system: MDA-N
Malme-3M = test system: Malme-3M
NCI-H226 = test system: NCI-H226
NCI-H23 = test system: NCI-H23
NCI-H460 = test system: NCI-H460
NCI-H522 = test system: NCI-H522
NCI/ADR-RES = test system: NCI/ADR-RES
OVCAR-3 = test system: OVCAR-3
OVCAR-4 = test system: OVCAR-4
OVCAR-5 = test system: OVCAR-5
OVCAR-8 = test system: OVCAR-8
PC-3 = test system: PC-3
RPMI-8226 = test system: RPMI-8226
RXF 393 = test system: RXF 393
SF-268 = test system: SF-268
SF-295 = test system: SF-295
SF-539 = test system: SF-539
SK-MEL-28 = test system: SK-MEL-28
SK-MEL-2 = test system: SK-MEL-2
SK-MEL-5 = test system: SK-MEL-5
SK-OV-3 = test system: SK-OV-3
SN12C = test system: SN12C
SNB-19 = test system: SNB-19
SNB-75 = test system: SNB-75
SR = test system: SR
SW-620 = test system: SW-620
TK-10 = test system: TK-10
U-251 = test system: U-251
UACC-257 = test system: UACC-257
UACC-62 = test system: UACC-62
UO-31 = test system: UO-31
CCRF-CEM = test system: CCRF-CEM
KM12 = test system: KM12
MOLT-4 = test system: MOLT-4
T47D = test system: T47D

Measured: GI50

CC1=C(/C=C/C(=O)O)C(C)(C)CCC1
inactive: 786-0 > 100 µM | A498 > 100 µM | A549 > 100 µM | ACHN > 100 µM | BT-549 > 100 µM | CAKI-1 > 100 µM | COLO 205 > 100 µM | DU-145 > 100 µM | EKVX > 100 µM | HCC 2998 > 100 µM | HCT-116 > 100 µM | HL-60 > 100 µM | HOP-62 > 100 µM | HOP-92 > 100 µM | HT-29 > 100 µM | Hs-578T > 100 µM | IGROV-1 > 100 µM | K562 > 100 µM | LOX IMVI > 100 µM | M14 > 100 µM | MCF7 > 100 µM | MDA-MB-231 > 100 µM | MDA-MB-435 > 100 µM | MDA-N > 100 µM | Malme-3M > 100 µM | NCI-H226 > 100 µM | NCI-H23 > 100 µM | NCI-H460 > 100 µM | NCI-H522 > 100 µM | NCI/ADR-RES > 100 µM | OVCAR-3 > 100 µM | OVCAR-4 > 100 µM | OVCAR-5 > 100 µM | OVCAR-8 > 100 µM | PC-3 > 100 µM | RPMI-8226 > 100 µM | RXF 393 > 100 µM | SF-268 > 100 µM | SF-295 > 100 µM | SF-539 > 100 µM | SK-MEL-28 > 100 µM | SK-MEL-2 > 100 µM | SK-MEL-5 > 100 µM | SK-OV-3 > 100 µM | SN12C > 100 µM | SNB-19 > 100 µM | SNB-75 > 100 µM | SR > 100 µM | SW-620 > 100 µM | TK-10 > 100 µM | U-251 > 100 µM | UACC-257 > 100 µM | UACC-62 > 100 µM | UO-31 > 100 µM
> 100 µM: HCT-15

Cc1[nH]c(=O)nc(S)c1C(=O)Nc1cccc2cc3ccccc3cc12
inactive: A498 > 100 µM | ACHN > 100 µM | BT-549 > 100 µM | CAKI-1 > 100 µM | CCRF-CEM > 100 µM | COLO 205 > 100 µM | DU-145 > 100 µM | EKVX > 100 µM | HCC 2998 > 100 µM | HCT-116 > 100 µM | HL-60 > 100 µM | HOP-62 > 100 µM | HOP-92 > 100 µM | HT-29 > 100 µM | Hs-578T > 100 µM | IGROV-1 > 100 µM | K562 > 100 µM | KM12 > 100 µM | LOX IMVI > 100 µM | M14 > 100 µM | MCF7 > 100 µM | MDA-MB-435 > 100 µM | MDA-N > 10 µM | MOLT-4 > 100 µM | Malme-3M > 100 µM | NCI-H226 > 100 µM | NCI-H23 > 100 µM | NCI-H460 > 100 µM | NCI/ADR-RES > 100 µM | OVCAR-3 > 100 µM | OVCAR-4 > 100 µM | OVCAR-5 > 100 µM | OVCAR-8 > 100 µM | PC-3 > 100 µM | RPMI-8226 > 100 µM | RXF 393 > 100 µM | SF-268 > 100 µM | SF-295 > 100 µM | SK-MEL-28 > 100 µM | SK-MEL-2 > 100 µM | SK-MEL-5 > 100 µM | SK-OV-3 > 100 µM | SN12C > 100 µM | SNB-19 > 100 µM | SNB-75 > 100 µM | SR > 100 µM | SW-620 > 100 µM | T47D > 100 µM | TK-10 > 100 µM | U-251 > 100 µM | UACC-62 > 100 µM | UO-31 > 100 µM
> 100 µM: HCT-15

NC(=O)NC(=O)c1cccc(CNc2ccc(C(=O)N[C@@H](CCC(=O)O)C(=O)O)cc2)n1
inactive: 786-0 > 100 µM | A549 > 100 µM | ACHN > 100 µM | BT-549 > 100 µM | CAKI-1 > 100 µM | COLO 205 > 100 µM | DU-145 > 100 µM | EKVX > 100 µM | HCC 2998 > 100 µM | HCT-116 > 100 µM | HL-60 > 100 µM | HOP-92 > 100 µM | HT-29 > 100 µM | Hs-578T > 100 µM | IGROV-1 > 100 µM | K562 > 100 µM | KM12 > 100 µM | LOX IMVI > 100 µM | M14 > 100 µM | MCF7 > 100 µM | MDA-MB-231 > 100 µM | MDA-MB-435 > 100 µM | MDA-N > 100 µM | MOLT-4 > 100 µM | NCI-H226 > 100 µM | NCI-H23 > 100 µM | NCI-H460 > 100 µM | NCI-H522 > 100 µM | NCI/ADR-RES > 100 µM | OVCAR-3 > 100 µM | OVCAR-4 > 100 µM | OVCAR-5 > 100 µM | OVCAR-8 > 100 µM | PC-3 > 100 µM | RPMI-8226 > 100 µM | SF-268 > 100 µM | SF-295 > 100 µM | SF-539 > 100 µM | SK-MEL-28 > 100 µM | SK-MEL-2 > 100 µM | SK-MEL-5 > 100 µM | SK-OV-3 > 100 µM | SN12C > 100 µM | SR > 100 µM | SW-620 > 100 µM | TK-10 > 100 µM | U-251 > 100 µM | UACC-257 > 100 µM | UACC-62 4 µM | UO-31 > 100 µM
> 100 µM: HCT-15

Cc1ccc(C(=O)N/N=C(\N=N\c2ccccc2[N+](=O)[O-])c2ccc(N(C)C)cc2)cc1
92.5 µM: HCT-15
inactive: 786-0 > 100 µM | A549 > 100 µM | ACHN > 100 µM | BT-549 > 100 µM | CAKI-1 > 100 µM | CCRF-CEM > 100 µM | COLO 205 > 100 µM | EKVX > 100 µM | HCC 2998 60.5 µM | HCT-116 > 100 µM | HL-60 84.9 µM | HOP-92 > 100 µM | HT-29 > 100 µM | Hs-578T > 100 µM | IGROV-1 > 100 µM | K562 > 100 µM | KM12 > 100 µM | LOX IMVI > 100 µM | M14 > 100 µM | MCF7 > 100 µM | MDA-MB-231 > 100 µM | MDA-MB-435 22.8 µM | MDA-N > 100 µM | MOLT-4 > 100 µM | NCI-H226 > 100 µM | NCI-H23 > 100 µM | NCI-H460 66.8 µM | NCI-H522 > 100 µM | NCI/ADR-RES > 100 µM | OVCAR-3 92 µM | OVCAR-4 > 100 µM | OVCAR-5 > 100 µM | OVCAR-8 > 100 µM | PC-3 > 100 µM | RPMI-8226 > 100 µM | SF-268 > 100 µM | SF-295 > 100 µM | SF-539 > 100 µM | SK-MEL-28 > 100 µM | SK-MEL-2 > 100 µM | SK-MEL-5 > 100 µM | SK-OV-3 > 100 µM | SN12C > 100 µM | SNB-19 > 100 µM | SR 33.7 µM | SW-620 > 100 µM | TK-10 > 100 µM | U-251 > 100 µM | UACC-257 > 100 µM | UACC-62 17.4 µM | UO-31 89.1 µM

c1ccc(CNC2CC(NCc3ccccn3)CC(NCc3ccccn3)C2)nc1 (stereo not given)
inactive: 786-0 3.02 µM | A498 1.82 µM | A549 2.61 µM | ACHN 12.5 µM | BT-549 6.79 µM | CCRF-CEM 2.92 µM | COLO 205 1.81 µM | DU-145 3.14 µM | HCC 2998 1.98 µM | HCT-116 2.23 µM | HOP-62 5.47 µM | HOP-92 3.24 µM | Hs-578T 8.28 µM | IGROV-1 3.21 µM | KM12 1.73 µM | MCF7 2.29 µM | MDA-MB-435 3.28 µM | MDA-N 3.42 µM | MOLT-4 3.96 µM | Malme-3M 3.56 µM | NCI-H226 2.32 µM | NCI-H460 2.6 µM | NCI-H522 2.62 µM | OVCAR-3 3.33 µM | OVCAR-4 2.88 µM | SF-268 4.53 µM | SF-295 4.18 µM | SK-MEL-28 4.75 µM | SK-MEL-2 2.58 µM | SK-MEL-5 2.25 µM | SK-OV-3 2.82 µM | SN12C 5.97 µM | SNB-75 2.97 µM | SW-620 4.11 µM | T47D 4.61 µM | TK-10 4.58 µM | UACC-257 6.65 µM | UO-31 16.7 µM
4.21 µM: HCT-15
